Earlier results in patent US20040034083A1, “Combination therapy for the treatment of Parkinson's disease with cyclooxygenase-2 (COX2) inhibitor(s)” (priority 2002, published 2004).

Experiments:
[1] = levodopa/carbidopa therapy of PD

fraction of levodopa that reaches the brain (levodopa alone administered orally): about 1%
fraction of orally administered levodopa metabolized by decarboxylase (then unable to cross the BBB) (oral administration, without carbidopa): Up to 99%
Structure (SMILES): N[C@@H](Cc1ccc(O)c(O)c1)C(=O)O [levodopa]
duration of effectiveness after initiation of therapy [1]: about 5 years
